Values of other authors as cited in patent US11690524B2, “Assessment of iron deposition post myocardial infarction as a marker of myocardial hemorrhage” (Cedars-Sinai Medical Center, priority 2011, dated 2023).

Key:
[1] = qualitative statement
post MI patients = conditions: 6 months of therapy, TACT trial

| SMILES | half-life in plasma / plasma life [1] | effect on MACE (major adverse cardiovascular events) (post MI patients) |
| --- | --- | --- |
| Cc1c(O)c(=O)ccn1C [Deferiprone] | longer | – |
| CC(=O)N(O)CCCCCNC(=O)CCC(=O)N(O)CCCCCNC(=O)CCC(=O)N(O)CCCCCN [deferoxamine] | short | – |
| O=C(O)CN(CCN(CC(=O)O)CC(=O)O)CC(=O)O [EDTA] | – | did not decrease MACE |
